In patent EP1658844A1, “Use of artemisinin derivatives in the manufacture of a medicament for the treatment of melanoma” (Schuler, Gerold, priority 2004, dated 2006):

How the values were obtained:
[1] = system: P388 leukemia; settings: NCI report on NSC 369397; cited from earlier work
[2] = system: tumor; settings: combination treatment with ferrous sulfate, three dog studies; cited from earlier work
[3] = system: cell line panels consisting of 60 lines; settings: 60 cell lines in nine disease-related subpanels; cited from earlier work
[4] = system: nucleic acid synthesis; settings: cited from earlier work
[5] = within the group of artemisinin analogs; cited from earlier work
[6] = system: metastatic uveal melanoma
Experimental: In the experimental examples below, standard techniques of therapeutical agent administration were used. […] Artesunate was provided by Sanofi Synthelabo, France.
The clinical course of the disease and the treatment modalities are depicted in detail in Figure 1. […] A chemotherapy with Dacarbazin (DTIC) was initiated at a concentration of 850 mg per m^2 body surface.
The clinical course of the disease and the treatment modalities are depicted in detail in Figure 2. […] A chemotherapy with DTIC at a concentration of 850 mg per m^2 body surface was initiated. […] In addition, the patient received an iron medication (three times daily ferroglycine sulfate equivalent to 40 mg Fe^2+) to potentially increase the efficacy of ART.

[7] = system: uveal melanoma; settings: largest prospective trial, metastatic uveal melanoma; cited from earlier work

Structure (SMILES): C[C@@H]1CC[C@H]2[C@@H](C)C(=O)O[C@@H]3O[C@@]4(C)CC[C@@H]1[C@]32OO4 [Artemisinin]
- activity against P388 leukemia [1]: inactive
- tumor size [2]: reduction of tumor size
- anticancer activity [3]: very little anticancer activity

Structure (SMILES): C[C@H]1[C@@H](OCc2ccc(C(=O)O)cc2)O[C@@H]2O[C@@]3(C)CC[C@H]4[C@H](C)CC[C@@H]1[C@@]24OO3 [artelinic acid]
- activity relative to artemisinin in ability to inhibit nucleic acid synthesis [4]: 100 times
- stability [5]: most stable
- water solubility [5]: most water soluble

Structure (SMILES): C[C@H]1[C@H](OC(=O)CCC(=O)O)O[C@@H]2O[C@@]3(C)CC[C@H]4[C@H](C)CC[C@@H]1[C@@]24OO3 [ART, (3R,5aS,6R,8aS,9R,10S,12R,12aR)-Decahydro-3,6,9-trimethyl-3,12-epoxy-12H-pyrano[4,3-j]1,2-benzodioxepin-10-ol,hydrogen succinate]
- side effects throughout the combination therapy ([6]; human, in vivo): no additional side effects
- toxicity of ART-treatment ([6]; human, in vivo): without measurable toxicity
- survival after start of the ART/Fotemustine therapy ([6]; patient 1): 11 months
- response at first staging ([6]; patient 1, ART 2 times daily 50 mg p.o. in combination with Fotemustine, three months after initiation): mixed response
- time to death after entry into stage IV according to AJCC ([6]; patient 1, DTIC, then Fotemustine, then ART plus chemotherapy): 23 months
- survival (still alive) after initiation of ART/DTIC-therapy ([6]; patient 2): ≥ 37 months
- response ([6]; patient 2, 50 mg ART twice daily p.o. with DTIC and ferroglycine sulfate, after 21 courses of DTIC, the last 11 with ART): objective response
- survival (still alive) after first diagnosis of stage IV uveal melanoma ([6]; patient 2, ART added to Dacarbazin): ≥ 37 months
- activity relative to artemisinin in ability to inhibit nucleic acid synthesis [4]: 100 times

Structure (SMILES): CCOP(=O)(OCC)C(C)NC(=O)N(CCCl)N=O (stereo not drawn) [Fotemustine]
- complete responses (CR) [7]: one CR in 48 patients

Structure (SMILES): CCO[C@H]1O[C@@H]2O[C@@]3(C)CC[C@H]4[C@H](C)CC[C@@H]([C@H]1C)[C@@]24OO3 [arteether]
- activity relative to artemisinin in ability to inhibit nucleic acid synthesis [4]: 100 times

Structure (SMILES): CCCOC(=O)OC1O[C@@H]2O[C@@]3(C)CC[C@H]4[C@H](C)CC[C@@H]([C@H]1C)[C@@]24OO3 (stereo partly drawn) [propylcarbonate dihydroartemisinin]
- activity relative to artemisinin in ability to inhibit nucleic acid synthesis [4]: 100 times
